# Reference: patent US20160264593A1 (priority 2013, published 2016)
# Several values for one entry are separate records, joined by “and”; a condition that tells them apart may be missing. Equal values may be shown once. Entries after “also recorded” stand apart in the source; their conditions may differ.
# Assay: Pharmacokinetic study of 100 (and metabolite endothal) in SD rats, iv; plasma, liver, brain
# Settings: for Endothal brain concentration / Endothal liver concentration / Endothal plasma concentration / concentration at 0.25 h / concentration at 1 h / concentration at 2 h / concentration at 10 h / concentration at 24 h / concentration at 6 h: SD rats; for AUCINF / AUClast / Cmax / Tmax / concentration at 0.25 h / concentration at 1 h / concentration at 2 h / concentration at 10 h / concentration at 24 h / concentration at 6 h: rat, in vivo, iv; for concentration at 0.25 h / concentration at 1 h / concentration at 2 h / concentration at 10 h / concentration at 24 h / concentration at 6 h: Endothal liver concentration
# Protocol: 100 was administrated via iv route at 0.5, 1.0 and 1.5 mg/kg into SD rats. The blood, liver and brain tissue samples were collected at predetermined times from rats.
# Twelve (12) female SD rats per group were dosed by iv with 100. The rats were fasted overnight prior to dosing, with free access to water. Foods were withheld for 2 hours post-dose. Blood, liver and brain tissue samples in two animals each group were collected at each time point, within 10% of the scheduled time for each time point. Two extra animals were used for analytic method development. Blood (>0.3 mL) were collected via aorta abdominalis in anaesthetic animalsinto tubes containing heparin at 15 min, 1, 2, 6, 10 and 24 hours after iv administration. Liver and brain tissues were collected immediately after animal death. The liver and brain tissues were excised and rinsed with cold saline to avoid blood residual. Upon collection, each sample was placed on ice and the blood samples were subsequently centrifuged (4° C., 11000 rpm, 5 min) to separate plasma. The obtained plasma, liver and brain tissue samples were stored at −70° C. until LC-MS/MS analysis.
# AUC0-∞ (AUC/NF) is the area under the plasma concentration-time curve with last concentration extrapolated based on the elimination rate constant.
# [1] = 100 iv 0.5 mg/kg, 24 hr, individual
structure (smiles),measurement,setting,value
"O=C(O)C1C2CCC(O2)C1C(=O)O (stereo not shown) [Endothal, 7-oxabicyclo[2.2.1]heptane-2,3-dicarboxylic acid]",Endothal brain concentration,"100 iv 0.5 mg/kg, 0.25 hr, individual",BLQ
same,Endothal liver concentration,"100 iv 0.5 mg/kg, 0.25 hr, individual, 0.5 mg/kg",382 ng/g
same,Endothal brain concentration,"100 iv 0.5 mg/kg, 0.25 hr, mean",BLQ
same,Endothal brain concentration,"100 iv 0.5 mg/kg, 1 hr, individual",BLQ
same,Endothal liver concentration,"100 iv 0.5 mg/kg, 1 hr, individual, 0.5 mg/kg",131 ng/g
same,Endothal brain concentration,"100 iv 0.5 mg/kg, 1 hr, mean",BLQ
same,Endothal brain concentration,"100 iv 0.5 mg/kg, 2 hr, individual",BLQ
same,Endothal liver concentration,"100 iv 0.5 mg/kg, 2 hr, individual, 0.5 mg/kg",273 ng/g
same,Endothal brain concentration,"100 iv 0.5 mg/kg, 2 hr, mean",BLQ
same,Endothal brain concentration,"100 iv 0.5 mg/kg, 6 hr, individual",BLQ
same,Endothal plasma concentration,"100 iv 0.5 mg/kg, 6 hr, individual, 0.5 mg/kg",BLQ
same,Endothal brain concentration,"100 iv 0.5 mg/kg, 6 hr, mean",BLQ
same,Endothal brain concentration,"100 iv 0.5 mg/kg, 10 hr, individual",BLQ
same,Endothal brain concentration,"100 iv 0.5 mg/kg, 10 hr, mean",BLQ
same,Endothal brain concentration,[1],BLQ
same,Endothal plasma concentration,[1],BLQ
same,Endothal liver concentration,"100 iv 0.5 mg/kg, 24 hr, individual, 0.5 mg/kg",36.4 ng/g
same,Endothal brain concentration,"100 iv 0.5 mg/kg, 24 hr, mean",BLQ
same,Endothal plasma concentration,"100 iv 0.5 mg/kg, 24 hr, mean",BLQ
same,Endothal brain concentration,"100 iv 1.0 mg/kg, 0.25 hr, individual",BLQ
same,Endothal liver concentration,"100 iv 1.0 mg/kg, 0.25 hr, individual, 1 mg/kg",1320 ng/g
same,Endothal brain concentration,"100 iv 1.0 mg/kg, 0.25 hr, mean",BLQ
same,Endothal brain concentration,"100 iv 1.0 mg/kg, 1 hr, individual",BLQ
same,Endothal liver concentration,"100 iv 1.0 mg/kg, 1 hr, individual, 1 mg/kg",1380 ng/g and 618 ng/g
same,Endothal brain concentration,"100 iv 1.0 mg/kg, 1 hr, mean",BLQ
same,Endothal brain concentration,"100 iv 1.0 mg/kg, 2 hr, individual",BLQ
same,Endothal liver concentration,"100 iv 1.0 mg/kg, 2 hr, individual, 1 mg/kg",1530 ng/g and 542 ng/g
same,Endothal brain concentration,"100 iv 1.0 mg/kg, 2 hr, mean",BLQ
same,Endothal brain concentration,"100 iv 1.0 mg/kg, 6 hr, individual",BLQ
same,Endothal liver concentration,"100 iv 1.0 mg/kg, 6 hr, individual, 1 mg/kg",241 ng/g
same,Endothal brain concentration,"100 iv 1.0 mg/kg, 6 hr, mean",BLQ
same,Endothal brain concentration,"100 iv 1.0 mg/kg, 10 hr, individual",BLQ
same,Endothal liver concentration,"100 iv 1.0 mg/kg, 10 hr, individual, 1 mg/kg",94.2 ng/g
same,Endothal brain concentration,"100 iv 1.0 mg/kg, 10 hr, mean",BLQ
same,Endothal brain concentration,"100 iv 1.0 mg/kg, 24 hr, individual",BLQ
same,Endothal liver concentration,"100 iv 1.0 mg/kg, 24 hr, individual, 1 mg/kg",115 ng/g
same,Endothal brain concentration,"100 iv 1.0 mg/kg, 24 hr, mean",BLQ
same,Endothal brain concentration,"100 iv 1.5 mg/kg, 0.25 hr, individual",BLQ
same,Endothal liver concentration,"100 iv 1.5 mg/kg, 0.25 hr, individual, 1.5 mg/kg",2160 ng/g
same,Endothal brain concentration,"100 iv 1.5 mg/kg, 0.25 hr, mean",BLQ
same,Endothal brain concentration,"100 iv 1.5 mg/kg, 1 hr, individual",BLQ
same,Endothal liver concentration,"100 iv 1.5 mg/kg, 1 hr, individual, 1.5 mg/kg",2976 ng/g
same,Endothal brain concentration,"100 iv 1.5 mg/kg, 1 hr, mean",BLQ
same,Endothal brain concentration,"100 iv 1.5 mg/kg, 2 hr, individual",BLQ
same,Endothal liver concentration,"100 iv 1.5 mg/kg, 2 hr, individual, 1.5 mg/kg",2226 ng/g
same,Endothal brain concentration,"100 iv 1.5 mg/kg, 2 hr, mean",BLQ
same,Endothal brain concentration,"100 iv 1.5 mg/kg, 6 hr, individual",BLQ
same,Endothal liver concentration,"100 iv 1.5 mg/kg, 6 hr, individual, 1.5 mg/kg",1326 ng/g
same,Endothal brain concentration,"100 iv 1.5 mg/kg, 6 hr, mean",BLQ
same,Endothal brain concentration,"100 iv 1.5 mg/kg, 10 hr, individual",BLQ
same,Endothal liver concentration,"100 iv 1.5 mg/kg, 10 hr, individual, 1.5 mg/kg",137 ng/g and 329 ng/g
same,Endothal brain concentration,"100 iv 1.5 mg/kg, 10 hr, mean",BLQ
same,Endothal brain concentration,"100 iv 1.5 mg/kg, 24 hr, individual",BLQ
same,Endothal liver concentration,"100 iv 1.5 mg/kg, 24 hr, individual, 1.5 mg/kg",52.1 ng/g
same,Endothal brain concentration,"100 iv 1.5 mg/kg, 24 hr, mean",BLQ
same,endothal detectable in brain samples,"after single iv 100 at 0.5, 1.0 and 1.5 mg/kg",not detectable; also recorded: undetectable
same,AUCINF,"female, SD, 0.5 mg/kg",0.828 µg·h/mL
same,AUClast,"female, SD, 0.5 mg/kg",0.546 µg·h/mL
same,Cmax,"female, SD, 0.5 mg/kg",0.577 µg/mL
same,Tmax,"female, SD, 0.5 mg/kg",15 min
same,concentration at 0.25 h,"female, SD, 0.5 mg/kg, 100 iv 0.5 mg/kg, 0.25 hr, individual",316 ng/g
same,concentration at 0.25 h,"female, SD, 0.5 mg/kg, 100 iv 0.5 mg/kg, 0.25 hr, mean",349 ng/g
same,concentration at 1 h,"female, SD, 0.5 mg/kg, 100 iv 0.5 mg/kg, 1 hr, individual",256 ng/g
same,concentration at 1 h,"female, SD, 0.5 mg/kg, 100 iv 0.5 mg/kg, 1 hr, mean",194 ng/g
same,concentration at 2 h,"female, SD, 0.5 mg/kg, 100 iv 0.5 mg/kg, 2 hr, individual",168 ng/g
same,concentration at 2 h,"female, SD, 0.5 mg/kg, 100 iv 0.5 mg/kg, 2 hr, mean",220 ng/g
same,concentration at 10 h,"female, SD, 0.5 mg/kg, 100 iv 0.5 mg/kg, 10 hr, mean",124 ng/g
same,concentration at 24 h,"female, SD, 0.5 mg/kg, 100 iv 0.5 mg/kg, 24 hr, individual",32 ng/g
same,concentration at 24 h,"female, SD, 0.5 mg/kg, 100 iv 0.5 mg/kg, 24 hr, mean",34.2 ng/g
same,AUCINF,"female, SD, 1 mg/kg",2.75 µg·h/mL
same,AUClast,"female, SD, 1 mg/kg",2.487 µg·h/mL
same,Tmax,"female, SD, 1 mg/kg",15 min
same,concentration at 0.25 h,"female, SD, 1 mg/kg, 100 iv 1.0 mg/kg, 0.25 hr, individual",768 ng/g
same,concentration at 0.25 h,"female, SD, 1 mg/kg, 100 iv 1.0 mg/kg, 0.25 hr, mean",1040 ng/g
same,concentration at 1 h,"female, SD, 1 mg/kg, 100 iv 1.0 mg/kg, 1 hr, mean",999 ng/g
same,concentration at 2 h,"female, SD, 1 mg/kg, 100 iv 1.0 mg/kg, 2 hr, mean",1040 ng/g
same,concentration at 6 h,"female, SD, 1 mg/kg, 100 iv 1.0 mg/kg, 6 hr, individual",298 ng/g
same,concentration at 6 h,"female, SD, 1 mg/kg, 100 iv 1.0 mg/kg, 6 hr, mean",270 ng/g
same,concentration at 10 h,"female, SD, 1 mg/kg, 100 iv 1.0 mg/kg, 10 hr, individual",151 ng/g
same,concentration at 10 h,"female, SD, 1 mg/kg, 100 iv 1.0 mg/kg, 10 hr, mean",123 ng/g
same,concentration at 24 h,"female, SD, 1 mg/kg, 100 iv 1.0 mg/kg, 24 hr, individual",66.6 ng/g
same,concentration at 24 h,"female, SD, 1 mg/kg, 100 iv 1.0 mg/kg, 24 hr, mean",90.8 ng/g
same,AUCINF,"female, SD, 1.5 mg/kg",4.73 µg·h/mL
same,AUClast,"female, SD, 1.5 mg/kg",4.476 µg·h/mL
same,Tmax,"female, SD, 1.5 mg/kg",15 min
same,concentration at 0.25 h,"female, SD, 1.5 mg/kg, 100 iv 1.5 mg/kg, 0.25 hr, individual",2300 ng/g
same,concentration at 0.25 h,"female, SD, 1.5 mg/kg, 100 iv 1.5 mg/kg, 0.25 hr, mean",2230 ng/g
same,concentration at 1 h,"female, SD, 1.5 mg/kg, 100 iv 1.5 mg/kg, 1 hr, individual",2870 ng/g
same,concentration at 1 h,"female, SD, 1.5 mg/kg, 100 iv 1.5 mg/kg, 1 hr, mean",2920 ng/g
same,concentration at 2 h,"female, SD, 1.5 mg/kg, 100 iv 1.5 mg/kg, 2 hr, individual",2950 ng/g
same,concentration at 2 h,"female, SD, 1.5 mg/kg, 100 iv 1.5 mg/kg, 2 hr, mean",2590 ng/g
same,concentration at 6 h,"female, SD, 1.5 mg/kg, 100 iv 1.5 mg/kg, 6 hr, individual",1690 ng/g
same,concentration at 6 h,"female, SD, 1.5 mg/kg, 100 iv 1.5 mg/kg, 6 hr, mean",1510 ng/g
same,concentration at 10 h,"female, SD, 1.5 mg/kg, 100 iv 1.5 mg/kg, 10 hr, mean",233 ng/g
same,concentration at 24 h,"female, SD, 1.5 mg/kg, 100 iv 1.5 mg/kg, 24 hr, individual",75 ng/g
same,concentration at 24 h,"female, SD, 1.5 mg/kg, 100 iv 1.5 mg/kg, 24 hr, mean",63.5 ng/g
same,Cmax,"female, Sprague-Dawley, 1.5 mg/kg",349 to 2960 ng/g
same,AUCINF,0.5 mg/kg,3095 ng·h/g
same,AUClast,0.5 mg/kg,2598 ng·h/g
same,AUCINF,1 mg/kg,7370 ng·h/g
same,AUClast,1 mg/kg,6673 ng·h/g
same,AUCINF,1.5 mg/kg,18850 ng·h/g
same,AUClast,1.5 mg/kg,18434 ng·h/g
